Source: patent US20050234066A1, “Alpha substituted carboxylic acids” (Agouron Pharmaceuticals, Inc., priority 2004, published 2005)

What was measured:
PPAR-α = target: T1, PPAR-α (Homo sapiens, UniProt Q07869); assay: Scintillation Proximity Assay (SPA), displacement of 3H labeled GW2331; type: binding; conditions: 3H GW2331 displacement, read-out: PPAR-alpha Ki
T1 sequence (Q07869 1-468): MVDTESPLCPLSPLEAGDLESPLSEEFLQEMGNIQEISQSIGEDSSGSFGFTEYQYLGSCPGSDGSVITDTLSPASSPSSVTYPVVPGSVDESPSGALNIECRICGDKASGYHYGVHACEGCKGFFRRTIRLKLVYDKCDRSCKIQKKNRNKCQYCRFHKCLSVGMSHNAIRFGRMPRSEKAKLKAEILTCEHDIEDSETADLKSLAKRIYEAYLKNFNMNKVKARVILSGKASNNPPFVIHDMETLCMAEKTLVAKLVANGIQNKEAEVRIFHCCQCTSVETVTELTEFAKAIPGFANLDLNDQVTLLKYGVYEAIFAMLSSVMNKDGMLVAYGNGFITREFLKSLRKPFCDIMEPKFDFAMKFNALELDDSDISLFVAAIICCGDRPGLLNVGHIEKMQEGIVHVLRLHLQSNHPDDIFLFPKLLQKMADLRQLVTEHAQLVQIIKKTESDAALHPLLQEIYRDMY
From the text: (§1) Scintillatian Proximity Assay (SPA) Assays
(§2) In the SPA assay, 3H labeled darglitazone (for PPAR-γ) or GW2331 (for PPAR-α) is bound to the PPAR protein captured on SPA polylysine beads and generates radioactive count signal that can be detected by TopCounts (Packard). The PPAR-bound 3H labeled ligand can be displaced by an unlabeled compound. The Ki of the compound can be then determined by the extent of displacement at various compound concentrations. Reagents: • SPA polylysine beads, which can be purchased from Amersham Bioscience. • H labeled Darglitazone for PPAR-γ. • H labeled GW2331 for PPAR-α. • PPAR proteins. • Buffer—PBS, 10% glycerol, 14 mM beta-mercaptoethanol.

PPAR-γ = target: T2, PPAR-γ (Homo sapiens, UniProt P37231); assay: Scintillation Proximity Assay (SPA), displacement of 3H labeled darglitazone; type: binding; conditions: 3H darglitazone displacement, read-out: PPAR-gamma Ki
T2 sequence (P37231 1-505): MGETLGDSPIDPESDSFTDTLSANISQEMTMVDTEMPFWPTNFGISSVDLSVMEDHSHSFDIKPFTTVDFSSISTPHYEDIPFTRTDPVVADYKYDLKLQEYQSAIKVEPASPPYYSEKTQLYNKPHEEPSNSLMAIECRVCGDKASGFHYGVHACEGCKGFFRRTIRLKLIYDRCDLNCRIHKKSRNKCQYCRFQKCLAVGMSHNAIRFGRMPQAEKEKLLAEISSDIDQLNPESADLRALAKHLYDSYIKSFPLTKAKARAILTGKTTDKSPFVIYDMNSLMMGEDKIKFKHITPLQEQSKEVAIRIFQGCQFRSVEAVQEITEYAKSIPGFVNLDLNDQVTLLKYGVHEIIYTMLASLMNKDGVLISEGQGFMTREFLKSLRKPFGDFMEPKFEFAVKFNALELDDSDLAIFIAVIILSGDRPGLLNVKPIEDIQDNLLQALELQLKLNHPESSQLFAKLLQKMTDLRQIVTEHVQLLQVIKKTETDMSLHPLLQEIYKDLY
From the text: as §1, §2

Row | Structure (SMILES) | Ki (PPAR-α) [nM] | Ki (PPAR-γ) [nM]
1 | Cc1cccc(-c2nc(CCOc3ccc(CC4(C(=O)O)CCCO4)nc3)c(C)o2)c1 (centres unmarked) [Example C-50] | 1100 | 43
2 | Cc1oc(-c2ccccc2)nc1COC(=O)NCc1ccc(OC(C)(C)C(=O)O)cc1 [Example B-08] | 3100 | 480
3 | Cc1oc(-c2ccccc2)nc1CCCOC(=O)NCc1cccc(OC(C)(C)C(=O)O)c1 [Example B-19] | 340 | 740
4 | Cc1oc(-c2ccccc2)nc1CCCc1ccc(CC2(C(=O)O)CCCO2)cn1 (centres unmarked) [Example C-74] | 900 | 640
5 | O=C(O)C1(Oc2cccc(-c3cccc(OCc4cc(-c5ccccc5)no4)c3)c2)CCC1 [Example A-14] | 150 | 1300
6 | Cc1oc(-c2ccccc2)nc1CCCOc1ccc2cc(CC3(C(=O)O)CCCO3)ccc2c1 (centres unmarked) [Example C-92] | 2800 | 1100
7 | CCC(Oc1cccc(CNC(=O)OCc2nc(-c3ccccc3)oc2C)c1)C(=O)O (centres unmarked) [Example B-14] | 21 | 2300
8 | Cc1onc(-c2ccccc2)c1COc1cccc(-c2cccc(OC3(C(=O)O)CCC3)c2)c1 [Example A-20] | 140 | 180
9 | Cc1oc(-c2ccccc2)nc1CCOc1ccc(CC2(C(=O)O)CCCCO2)nc1 (centres unmarked) [Example C-57] | 1800 | 1100
10 | Cn1nc(-c2ccccc2)nc1COc1cccc(-c2cccc(OC3(C(=O)O)CCC3)c2)c1 [Example A-19] | 700 | 59
11 | Cc1oc(-c2ccc(C(N)=O)cc2)nc1CCOc1ccc(CC2(C(=O)O)CCCO2)cc1 (centres unmarked) [Example C-81] | 750 | 15
12 | Cc1oc(-c2ccccc2)nc1COC(=O)NCc1cccc(OC(C)(C)C(=O)O)c1 [Example B-06] | 130 | 370
13 | O=C(O)C1(Oc2ccc(OCc3nc(-c4ccccc4)oc3-c3ccccc3)cc2)CCC1 [Example C-36] | 21000 | 1700
14 | Cc1oc(-c2ccccc2)nc1CCOc1ncc(CC2(C(=O)O)CCCO2)cn1 (centres unmarked) [Example C-76] | 7300 | 2300
15 | Cc1oc(-c2ccccc2)nc1CCOc1ccc2cc(CC3(C(=O)O)CCCO3)ccc2c1 (centres unmarked) [Example C-91] | 1800 | 390
16 | Cc1oc(-c2ccccc2)nc1CCCc1ccc(OC2(C(=O)O)CCC2)cc1 [Example C-15] | 3200 | 14000
17 | Cc1oc(-c2ccccc2)nc1CCOc1ccc(OC2(C(=O)O)CCC2)cc1 [Example C-40] | 700 | 3700
18 | COc1ccc(-c2nc(COc3cccc(-c4cccc(OC5(C(=O)O)CCC5)c4)c3)no2)cc1 [Example A-17] | 1600 | 1900
19 | Cc1nn(-c2ccccc2)nc1CCOc1cccc(-c2cccc(OC(C)(C)C(=O)O)c2)c1 [Example A-26] | 330 | 150

Now from value to molecule:

Row | Ki (PPAR-α) [nM] | Ki (PPAR-γ) [nM] | Structure (SMILES)
20 | 93 | 26 | Cc1oc(-c2cccc(Cl)c2)nc1CCOc1ccc(CC2(C(=O)O)CCC2)cc1 [Example C-31]
21 | 30 | 40 | Cc1cccc(-c2nc(CCOc3ccc(CC4(C(=O)O)CCCO4)cc3)c(C)o2)c1 (centres unmarked) [Example C-89]
22 | 460 | 150 | CCOC(Cc1cccc(CNC(=O)OCc2nc(-c3ccccc3)oc2C)c1)C(=O)O (centres unmarked) [Example B-22]
23 | 59 | 1500 | COC(C)(Cc1ccc(OCCc2nc(C3CCCCC3)oc2C)nc1)C(=O)O [Example D-32]
24 | 41000 | 9500 | COc1ccc(-c2ccc(CCOc3ccc(CC4(C(=O)O)CCC4)cc3)cc2)cc1 [Example C-06, 1-{4-[2-(4′-methoxy-1,1′-biphenyl-4-yl)ethoxy]benzyl}cyclobutanecarboxylic acid]
25 | 2500 | 1100 | CN(CCOc1ccc(CC2(C(=O)O)CCCO2)cn1)c1nc2ccccc2o1 (centres unmarked) [Example C-69]
26 | 3500 | 2000 | Cc1oc(-c2ccccc2)nc1CCOc1ccc(CC2(C(=O)O)CCCC2)cn1 [Example C-46]
27 | 2600 | 1500 | CCOC(Cc1ccc(OCCc2ccc(Oc3ccccc3)cc2)nc1)C(=O)O [Example D-14]
28 | 840 | 480 | CCOC(Cc1ccc(OCCc2ccc(OC(F)(F)F)cc2)nc1)C(=O)O [Example D-20]
29 | 13 | 5 | Cc1oc(-c2cccc(Cl)c2)nc1CCOc1ccc(CC2(C(=O)O)CCCO2)cc1 (centres unmarked) [Example C-86]
30 | 4600 | 1400 | O=C(O)C1(Cc2ccc(OCCc3ccc(-c4cccc(OC(F)(F)F)c4)cc3)cc2)CCC1 [Example C-09]
31 | 6400 | 1700 | CCOC(Cc1ccc(OCCc2ccc(OS(C)(=O)=O)cc2)nc1)C(=O)O [Example D-19]
32 | 13 | 4 | COc1cccc(-c2nc(CCOc3ccc(CC4(C(=O)O)CCCO4)cc3)c(C)o2)c1 (centres unmarked) [Example C-85]
33 | 320 | 17 | COc1ccc(-c2nc(CCOc3ccc(CC(OC)C(=O)O)cn3)c(C)o2)cc1 [Example D-07]
34 | 150 | 35 | Cc1cccc(-c2nc(CCOc3ccc(CC4(C(=O)O)CCC4)cc3)c(C)o2)c1 [Example C-32]
35 | 2500 | 190 | Cc1oc(-c2ccc(C(N)=O)cc2)nc1CCOc1ccc(CC2(C(=O)O)CCC2)cc1 [Example C-23]
36 | 290 | 460 | COC(Cc1ccc(OCCc2nc(-c3ccc(C#N)cc3)oc2C)nc1)C(=O)O [Example D-02]
37 | 15 | 2 | COc1cccc(-c2nc(CCOc3ccc(CC(OC)C(=O)O)cn3)c(C)o2)c1 [Example D-08]
38 | 66 | 53 | Cc1oc(-c2cccc(N(C)C)c2)nc1CCOc1ccc(CC2(C(=O)O)CCC2)cc1 [Example C-21]
39 | 2100 | 800 | Cc1oc(-c2ccccc2C#N)nc1CCOc1ccc(CC2(C(=O)O)CCC2)cc1 [Example C-22]
40 | 4 | 8 | Cc1ccc(-c2nc(CCOc3ccc(CC4(C(=O)O)CCCO4)cc3)c(C)o2)cc1 (centres unmarked) [Example C-83]
